Measurements from PubChem BioAssay (NCI).
“And” between values parts separate entries of the source, which are not always exact repeats. Identical values can stand only once.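 Compound exposure: 48 hours, 5 concentrations, 96-well plates. GI50 is the concentration that inhibits growth by half. At the TGI there is no net growth.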

Key:
[1] = system: UO-31 renal; test: inhibition of tumour cell growth, NCI panel, 48 h
[2] = system: U251 CNS; test: inhibition of tumour cell growth, NCI panel, 48 h

Compound	TGI [1]	TGI [2] [µM]	GI50 [1]
Cc1cc(O)cc(O)c1C(=O)O[C@]1(C)C(=O)C=C2C=C(/C=C/C(=O)O)OC=C2C1=O	> 100 µM		
Nc1ccc2ccc(-c3ccc[nH]3)nc2n1	> 100 µM	> 100	
CN[C@@H](C)[C@@H](O)c1ccccc1	> 100 µM	> 100	
O=[N+]([O-])c1ccc(N2N=C(c3ccc4ccccc4c3O)CC2c2ccc(Cl)cc2)c([N+](=O)[O-])c1 (configuration not stated)	> 100 µM	> 100	
CCCCCN(CCCCC)CC(C)(C)C(O)c1ccc(OC)c2ccccc12 (configuration not stated)	8.93 µM	22.7	
CC(=O)Oc1cc(OC(C)=O)c2c(C)cc(=O)oc2c1	> 100 µM	> 100	
CCOC(=O)C(=CN1CCNC1=S)C(=O)OCC	> 100 µM	> 100	> 100 µM
CC(=O)N(C(C)=O)n1c(Cc2ccc(C)cc2)nn(C(C)=O)c1=O	> 100 µM	> 100	
Cc1ccc(S(=O)(=O)N/N=C2/CCC(C(C)(C)C)CC2Br)cc1 (configuration not stated)	33.4 µM	21.1	
CC(=O)NC1(C(=O)N[C@@H](Cc2ccccc2)C(=O)NC2CCCCC2)Cc2ccc3ccccc3c2-c2c(ccc3ccccc23)C1	22.9 µM and 45.9 µM	> 100	2.8 µM and 11.8 µM
CCCc1nnc2sc(COc3cc(Cl)c(OCc4nn5c(CCC)nnc5s4)cc3Cl)nn12		> 100	
CC12ON(P(=O)(c3ccccc3)c3ccccc3)C(C)(c3ccccc31)c1ccccc12	> 100 µM	> 100	
CCOc1ccc(/C=C2\NC(=S)N(/C=C3\C(=O)Oc4ccccc4C3=O)C2=O)cc1	49.4 µM	78.4	
O=C1C2=C(SCCS2)C(=O)c2c(Sc3ccc(Cl)cc3)c(Sc3ccc(Cl)cc3)c(Sc3ccc(Cl)cc3)c(Sc3ccc(Cl)cc3)c21	> 100 µM	> 100	
COc1c(C)c(C/C=C(\C)CC/C=C(\C)CC/C=C(\C)CCC=C(C)C)c(OC)c2ccccc12	> 100 µM	> 100	
CC(=O)OC(C)c1cc2c(s1)C(=O)c1c(C(C)OC(C)=O)csc1C2=O (configuration not stated)	2.9 µM	2.7	
c1csc(-c2ccsc2-c2ccsc2)c1	> 100 µM	> 100	
O=C(C(Cl)=C(N1CCCCC1)N1CCCCC1)C(Cl)Cl	> 100 µM		
COC([C@@H](OC(=O)c1ccccc1)[C@H](OC(=O)c1ccccc1)C(O)COC(=O)c1ccccc1)n1cc(C)c(=O)[nH]c1=O (some centres not stated)	> 100 µM	58.3	

Compound	TGI [1]	TGI [2] [µM]	GI50 [1]
Cc1c(O)c(OC2OC(CO)C(O)C(O)C2O)cc2c1C=C[C@@H]1[C@@]2(C)C(=O)C[C@]2(C)[C@@H]([C@@](C)(O)C(=O)CCC(C)(C)O)[C@H](O)C[C@@]12C (some centres not stated)	44.8 µM	43.2	
Cc1ccc2c(C(=O)c3c(C)n(CCN4CCOCC4)c4ccccc34)cccc2c1	> 100 µM	41	
O=C(c1ccc(O)c([N+](=O)[O-])c1)c1ccc(O)c([N+](=O)[O-])c1	> 100 µM	> 100	
CC(C)(C)OC(=O)N1[C@@H]2Cc3ccc(N)cc3[C@@]1(C)c1ccccc12	> 100 µM	32.4	
NC(CC(O)(c1ccccc1)c1ccccc1)c1ccccc1S (configuration not stated)	23.5 µM	28.3	
O=C1/C(=C/c2ccccc2)NC(=S)N1CN1CCCCC1	> 100 µM	> 100	
CN(Cc1cnc2nc(N)nc(N)c2n1)c1ccc(C(=O)NC(CCC(=O)NC(CC(P(=O)(O)O)P(=O)(O)O)C(=O)O)C(=O)O)cc1 (configuration not stated)	> 100 µM	> 100	
CC1=CCC[C@H]2[C@](C)(CC3=CC(=O)C(Sc4ccccc4)=CC3=O)[C@@H](C)CC[C@]12C	29.1 µM	40.1	
COc1ccc(C2SCC(=O)N2NC(=O)C(C)Oc2ccccc2C)cc1 (configuration not stated)	> 100 µM	> 100	
N[C@H](CCC(=O)NCP(=O)(O)O)C(=O)O	> 100 µM	> 100	
CCC(=O)/C(=C\I)c1ccccc1	4.2 µM	4.83	
COc1ccc2[nH]c(C(=O)N3CC(CCl)c4c3cc(N)c3ccccc43)cc2c1 (configuration not stated)	< 0.0164 µM	0.0409	
COCC12CCC(OC)C34C5CC6(O)C(OC)CC(OC(C)=O)(C5C6OC(=O)c5ccccc5)C(C(OC)C13)C4N(C)C2 (configuration not stated)	> 100 µM	> 100	
NC(=Nc1ccccc1)c1ccccc1N	> 100 µM	> 100	
O=C(N/N=C(/COc1ccccc1Cl)N=Cc1ccncc1)c1ccncc1		> 100	
O=[N+]([O-])c1ccc(O)c(/C=N/c2nc(-c3ccccc3)cs2)c1	> 86.4 µM	> 100	
COC(=O)c1cccc(OC)c1C#Cc1c(OC)cccc1OC	> 100 µM	> 100	
COC(=O)c1ccccc1C1=C([N+](=O)[O-])C(c2ccccc2)C(C#N)=C(N)O1 (configuration not stated)		> 100	
Cc1c2ccccc2c(C)n2c1nc1ccccc12	24.1 µM		
